# Data reported in patent publication US12570655B2, “Cysteine covalent modifiers of AKT1 and uses thereof” (Terremoto Biosciences, Inc., priority 2023, dated 2026).
# Where two headings read alike, the source gives them in different places.
# Tests used:
# Format in all cases: cell-based
# AKT1 E17K = biological target: T1, AKT1 E17K (Homo sapiens, UniProt P31749, E17K); experiment: Live cell AKT1 E17K target engagement by NanoBRET competitive probe displacement; details: HEK293 cells transfected with kinase-NanoLuciferase fusion, 2 h at 37° C.
# T1 construct: expressed in transfected cells; host or cells: HEK293
# T1 sequence (P31749 whole entry E17K, the tested form may be a part): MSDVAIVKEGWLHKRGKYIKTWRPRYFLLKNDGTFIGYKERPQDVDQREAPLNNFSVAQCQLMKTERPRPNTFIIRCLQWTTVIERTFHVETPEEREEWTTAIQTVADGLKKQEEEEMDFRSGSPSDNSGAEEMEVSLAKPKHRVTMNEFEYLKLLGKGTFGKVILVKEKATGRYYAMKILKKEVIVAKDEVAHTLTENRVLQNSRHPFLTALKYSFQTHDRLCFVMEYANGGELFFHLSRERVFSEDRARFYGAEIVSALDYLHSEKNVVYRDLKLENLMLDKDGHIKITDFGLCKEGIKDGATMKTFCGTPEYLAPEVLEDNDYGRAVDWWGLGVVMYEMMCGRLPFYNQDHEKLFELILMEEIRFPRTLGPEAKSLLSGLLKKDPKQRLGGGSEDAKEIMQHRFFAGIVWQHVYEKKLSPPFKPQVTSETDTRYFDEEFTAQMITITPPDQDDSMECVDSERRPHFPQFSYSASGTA
# Procedure, shortened: (§1)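 IC50 reflects displacement of a fluorescent ATP-competitive tracer, dosed near its EC50, from kinase–NanoLuciferase fusions in live HEK293 cells. Cells were incubated with compound and tracer for 2 h at 37 °C, then E600/E460 BRET was read.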
# AKT2 = biological target: T2, AKT2 (Homo sapiens, UniProt P31751); experiment: Live cell AKT2 target engagement by NanoBRET competitive probe displacement; details: HEK293 cells transfected with kinase-NanoLuciferase fusion, 2 h at 37° C.
# T2 construct: expressed in transfected cells; host or cells: HEK293
# T2 sequence (P31751 whole entry, the tested form may be a part): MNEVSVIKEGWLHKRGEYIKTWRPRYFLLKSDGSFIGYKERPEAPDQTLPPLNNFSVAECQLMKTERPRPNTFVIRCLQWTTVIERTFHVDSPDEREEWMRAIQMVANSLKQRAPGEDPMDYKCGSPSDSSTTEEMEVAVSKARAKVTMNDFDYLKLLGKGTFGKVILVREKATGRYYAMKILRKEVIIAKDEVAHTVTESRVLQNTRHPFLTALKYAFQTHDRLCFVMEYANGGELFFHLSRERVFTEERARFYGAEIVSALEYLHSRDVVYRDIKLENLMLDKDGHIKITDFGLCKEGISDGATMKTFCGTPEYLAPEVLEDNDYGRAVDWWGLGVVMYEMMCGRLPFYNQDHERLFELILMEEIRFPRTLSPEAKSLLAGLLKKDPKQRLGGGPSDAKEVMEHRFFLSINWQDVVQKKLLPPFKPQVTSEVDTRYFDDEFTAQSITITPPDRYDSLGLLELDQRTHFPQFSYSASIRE
# Procedure, shortened: as §1
# AKT1 WT = biological target: T3, AKT1 WT (Homo sapiens, UniProt P31749); experiment: Live cell AKT1 WT target engagement by NanoBRET competitive probe displacement; details: HEK293 cells transfected with kinase-NanoLuciferase fusion, 2 h at 37° C.
# T3 construct: expressed in transfected cells; host or cells: HEK293
# T3 sequence (P31749 whole entry, the tested form may be a part): as the sequence (P31749 whole entry E17K, the tested form may be a part) above, with K17E counted along it
# Procedure, shortened: as §1
# [1] = system: LAPC4 prostate cancer cells; experiment: Antiproliferative effects in LAPC4 cells (CellTiter Glo); details: LAPC4 cells (AKT1 E17K allele), read-out: LAPC4 proliferation IC50
# Procedure, shortened: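 Seed 1,000 cells/well in IMDM/12% FBS/1% P/S; add compound dilutions (DMSO); incubate 72 h; read intracellular ATP with CellTiter Glo; fit luminescence to log(inhibitor)-response Hill curve for IC50.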
IC50 (AKT1 E17K) [nM],IC50 (AKT2) [nM],IC50 (AKT1 WT) [nM],IC50 ([1]; 72 h) [nM],"IC50 ([1]; Homo sapiens, LAPC4, 72 h) [nM]",Structure (SMILES)
213,781,31.1,478,–,"C=CC(=O)N1CCC(NC2c3ccc(-n4c(-c5cccnc5N)nc5ccc(-n6cccn6)nc54)cc3CC2O)CC1 (single isomer, unassigned) [Example 150, 1-(4-(((1*,2*)-5-(2-(2-aminopyridin-3-yl)-5-(1H-pyrazol-1-yl)-3H-imidazo[4,5-b]pyridin-3-yl)-2-hydroxy-2,3-dihydro-1H-inden-1-yl)amino)piperidin-1-yl)prop-2-en-1-one]"
> 1000,> 10000,> 1000,> 10000,–,"C=CC(=O)N1CCC(NC2c3ccc(-n4c(-c5cccnc5N)nc5ccc(-n6cccn6)nc54)cc3CC2O)CC1 (single isomer, unassigned) [Example 151, 1-(4-(((1*,2*)-5-(2-(2-aminopyridin-3-yl)-5-(1H-pyrazol-1-yl)-3H-imidazo[4,5-b]pyridin-3-yl)-2-hydroxy-2,3-dihydro-1H-inden-1-yl)amino)piperidin-1-yl)prop-2-en-1-one]"
> 1000,1230,83.6,490,–,"C=CC(=O)N1CCC(N[C@H]2CCc3cc(-n4c(-c5cccnc5N)nc5ccc(-n6cccn6)nc54)ccc32)C(C#N)C1 (single isomer, unassigned) [Example 155, (3*,4*)-1-acryloyl-4-(((S)-5-(2-(2-aminopyridin-3-yl)-5-(1H-pyrazol-1-yl)-3H-imidazo[4,5-b]pyridin-3-yl)-2,3-dihydro-1H-inden-1-yl)amino)piperidine-3-carbonitrile]"
11.3,64.7,9.8,30.2,–,"C=CC(=O)N1CCC(N[C@H]2CCc3cc(-n4c(-c5cccnc5N)nc5ccc(-n6cccn6)nc54)ccc32)C(C#N)C1 (single isomer, unassigned) [Example 156, (3*,4*)-1-acryloyl-4-(((S)-5-(2-(2-aminopyridin-3-yl)-5-(1H-pyrazol-1-yl)-3H-imidazo[4,5-b]pyridin-3-yl)-2,3-dihydro-1H-inden-1-yl)amino)piperidine-3-carbonitrile]"
645,5880,102,–,1600,"C=CC(=O)N1CCC(N[C@@H]2c3ccc(-n4c(-c5cccnc5N)nc5ccc(-n6cccn6)nc54)cc3CC2OC)CC1 (single isomer, unassigned) [Example 162, 1-(4-(((1R,2*)-5-(2-(2-aminopyridin-3-yl)-5-(1H-pyrazol-1-yl)-3H-imidazo[4,5-b]pyridin-3-yl)-2-methoxy-2,3-dihydro-1H-inden-1-yl)amino)piperidin-1-yl)prop-2-en-1-one]"
642,1910,71.7,879,–,"C=CC(=O)N1CCC(N[C@@H]2c3ccc(-n4c(-c5cccnc5N)nc5ccc(-n6cccn6)nc54)cc3CC2OC)CC1 (single isomer, unassigned) [Example 163, 1-(4-(((1R,2*)-5-(2-(2-aminopyridin-3-yl)-5-(1H-pyrazol-1-yl)-3H-imidazo[4,5-b]pyridin-3-yl)-2-methoxy-2,3-dihydro-1H-inden-1-yl)amino)piperidin-1-yl)prop-2-en-1-one]"
475,4100,58,489,–,"C=CC(=O)N1CCC(N[C@H]2CCc3cc(-n4c(-c5cccnc5N)nc5ccc(-n6cccn6)nc54)ccc32)C[C@@H]1COC (single isomer, unassigned) [Example 164, 1-((2R,4*)-4-(((S)-5-(2-(2-aminopyridin-3-yl)-5-(1H-pyrazol-1-yl)-3H-imidazo[4,5-b]pyridin-3-yl)-2,3-dihydro-1H-inden-1-yl)amino)-2-(methoxymethyl)piperidin-1-yl)prop-2-en-1-one]"
143,163,39.3,187,–,"C=CC(=O)N1CCC(N[C@H]2CCc3cc(-n4c(-c5cccnc5N)nc5ccc(-n6cccn6)nc54)ccc32)C[C@@H]1COC (single isomer, unassigned) [Example 165, 1-((2R,4*)-4-(((S)-5-(2-(2-aminopyridin-3-yl)-5-(1H-pyrazol-1-yl)-3H-imidazo[4,5-b]pyridin-3-yl)-2,3-dihydro-1H-inden-1-yl)amino)-2-(methoxymethyl)piperidin-1-yl)prop-2-en-1-one]"
32.6,369,571,858,–,"C=CC(=O)N1CCCC(c2cn([C@H]3CCc4cc(-n5c(-c6cccnc6N)nc6ccc(-n7cccn7)nc65)ccc43)nn2)C1 (single isomer, unassigned) [Example 168, 1-((*)-3-(1-((S)-5-(2-(2-aminopyridin-3-yl)-5-(1H-pyrazol-1-yl)-3H-imidazo[4,5-b]pyridin-3-yl)-2,3-dihydro-1H-inden-1-yl)-1H-1,2,3-triazol-4-yl)piperidin-1-yl)prop-2-en-1-one]"
37.8,484,967,–,433,"C=CC(=O)N1CCC(N[C@H]2CCc3cc(-n4c(-c5cccnc5N)nc5ccc(C6CC6)nc54)ccc32)C(F)C1 (single isomer, unassigned) [Example 176, 1-((3*,4*)-4-(((S)-5-(2-(2-aminopyridin-3-yl)-5-cyclopropyl-3H-imidazo[4,5-b]pyridin-3-yl)-2,3-dihydro-1H-inden-1-yl)amino)-3-fluoropiperidin-1-yl)prop-2-en-1-one]"
36.9,114,1520,416,–,"C=CC(=O)N1CCC(N[C@H]2CCc3cc(-n4c(-c5cccnc5N)nc5ccc(C6CC6)nc54)ccc32)C(F)C1 (single isomer, unassigned) [Example 177, 1-((3*,4*)-4-(((S)-5-(2-(2-aminopyridin-3-yl)-5-cyclopropyl-3H-imidazo[4,5-b]pyridin-3-yl)-2,3-dihydro-1H-inden-1-yl)amino)-3-fluoropiperidin-1-yl)prop-2-en-1-one]"
18.6,160,244,625,–,"C=CC(=O)N1CCN(N(C)C2CCc3cc(-n4c(-c5cccnc5N)nc5ccc(-n6cccn6)nc54)ccc32)CC1 (single isomer, unassigned) [Example 180, 1-(4-{[(1*)-5-[2-(2-aminopyridin-3-yl)-5-(pyrazol-1-yl)imidazo[4,5-b]pyridin-3-yl]-2,3-dihydro-1H-inden-1-yl](methyl)amino}piperazin-1-yl)prop-2-en-1-one]"
58.7,513,1140,941,–,"C=CC(=O)N1CCC(N[C@@H]2c3ccc(-n4c(-c5cccnc5N)nc5ccc(-n6cccn6)nc54)cc3CC2C)CC1 (single isomer, unassigned) [Example 181, 1-(4-{[(1S,2*)-5-[2-(2-aminopyridin-3-yl)-5-(pyrazol-1-yl)imidazo[4,5-b]pyridin-3-yl]-2-methyl-2,3-dihydro-1H-inden-1-yl]amino}piperidin-1-yl)prop-2-en-1-one]"
60.9,740,1470,1370,–,"C=CC(=O)N1C[C@H]2CCC[C@@H](C1)C2N[C@H]1CCc2cc(-n3c(-c4cccnc4N)nc4ccc(-n5cccn5)nc43)ccc21 (single isomer, unassigned) [Example 189, 1-((1R,5S,9*)-9-(((S)-5-(2-(2-aminopyridin-3-yl)-5-(1H-pyrazol-1-yl)-3H-imidazo[4,5-b]pyridin-3-yl)-2,3-dihydro-1H-inden-1-yl)amino)-3-azabicyclo[3.3.1]nonan-3-yl)prop-2-en-1-one]"
15.9,80.1,281,317,–,"C=CC(=O)N1CCN(NC2CCc3cc(-n4c(-c5cccnc5N)nc5ccc(-n6ccc(F)n6)nc54)ccc32)CC1 (single isomer, unassigned) [Example 200, 1-(4-{[(1*)-5-[2-(2-aminopyridin-3-yl)-5-(3-fluoropyrazol-1-yl)imidazo[4,5-b]pyridin-3-yl]-2,3-dihydro-1H-inden-1-yl]amino}piperazin-1-yl)prop-2-en-1-one]"
10.2,41,96.8,127,–,"C=CC(=O)N1CCN(NC2CCc3cc(-n4c(-c5cccnc5N)nc5ccc(-n6ccc(F)n6)nc54)ccc32)CC1 (single isomer, unassigned) [Example 201, 1-(4-{[(1*)-5-[2-(2-aminopyridin-3-yl)-5-(3-fluoropyrazol-1-yl)imidazo[4,5-b]pyridin-3-yl]-2,3-dihydro-1H-inden-1-yl]amino}piperazin-1-yl)prop-2-en-1-one]"
16.8,272,919,–,380,"C=CC(=O)N1CCC(N[C@H]2CCc3cc(-n4c(-c5cccnc5N)nc5ccc(C6CC6)nc54)ccc32)C[C@H]1C (single isomer, unassigned) [Example 210, 1-((2R,4*)-4-(((S)-5-(2-(2-aminopyridin-3-yl)-5-cyclopropyl-3H-imidazo[4,5-b]pyridin-3-yl)-2,3-dihydro-1H-inden-1-yl)amino)-2-methylpiperidin-1-yl)prop-2-en-1-one]"
